Earlier results, collected in PMC7731283, “Synthesis and Biological Evaluation of Halogenated E-Stilbenols as Promising Antiaging Agents” (Molecules, 2020).

Parameters: method as in PMID 29315886, PMID 15779070
Conditions: compared with RSV; cited from earlier work

In the case of `COc1cc(/C=C/c2ccc(O)cc2)cc(OC)c1` [pterostilbene], the metabolic stability is listed as “more metabolically stable”.
